Entries after “also recorded” stand apart in the source; their conditions may differ. Where a SMILES comes first, the peptide text is derived from it. The star is where a group is joined. Cbz = O=C(OCc1ccccc1)*; CH2F = FC*
Assays:
DR4-induced apoptosis = experiment: Cell death assay: DR4-induced apoptosis in cells transiently transfected with a DR4 expressing construct, with death protease inhibitors; format: cell-based, human; settings: FIG. 5C
[1] = system: DR4-induced apoptosis in MCF7 human breast carcinoma cells and 293 human embryonic kidney cells; experiment: DR4-induced apoptosis cell death assay (transient transfection, X-Gal staining); format: cell-based; settings: z-VAD-fmk added at 10 μM, 5 hrs after transfection; cells stained 32 hours following transfection
Procedure: Overexpression of Fas/APO-1 and TNFR-1 in mammalian cells mimics receptor activation (M. Muzio, et al., Cell 85, 817-827 (1996); M. P. Boldin, et al, Cell 85, 803-815 (1996)). Thus, this system was utilized to study the functional role of DR4. Transient expression of DR4 in MCF7 human breast carcinoma cells and 293 human embryonic kidney cells induced rapid apoptosis.
Cell death assays are performed essentially as previously described (A. M. Chinnaiyan, et al., Cell 81, 505-12 (1995); M. P. Boldin, et al, J Biol Chem 270, 7795-8 (1995); F. C. Kischkel, et al., EMBO 14, 5579-5588 (1995); A. M. Chinnaiyan, et al., J Biol Chem 271, 4961-4965 (1996)). Briefly, MCF-7 human breast carcinoma clonal cell lines stably transfected with either vector alone or a CrmA expression construct (M. Tewari, et al., J Biol Chem 270, 3255-60 (1995)), are transiently transfected with pCMV-DR4-galactosidase (or pCMV-DR4-galactosidase (lacking the death domain)) in the presence of a ten-fold excess of pcDNA3 expression constructs encoding the indicated proteins using lipofectamine (GIBCO-BRL). 293 cells are likewise transfected using the CaPO4 method. The ICE family inhibitor z-VAD-fmk (Enzyme Systems Products, Dublin, Calif.) is added to the cells at a concentration of 10 μM, 5 hrs after transfection. […]

[2] = system: TRAIL-induced apoptosis in MCF7 cells; experiment: Blocking of TRAIL-induced apoptosis in MCF7 cells by receptor-Fc fusions; format: cell-based, human; settings: FIG. 6A

Molecule | Blocking of DR4-induced apoptosis (DR4-induced apoptosis) | Blocking of DR4-induced apoptosis (DR4-induced apoptosis; listed as z-VAD-fink) | DR4-induced apoptosis [1] | Blocking of the ability of TRAIL to induce apoptosis [2]
COC(=O)C[C@H](NC(=O)[C@H](C)NC(=O)[C@@H](NC(=O)OCc1ccccc1)C(C)C)C(=O)CF [z-VAD-fmk] (Cbz-Val-Ala-Asp(OMe)-CH2F) | inhibit the apoptotic action of DR4; also recorded: efficiently blocked | blocked | blocked | –
CD95-Fc: extracellular domain of CD-95 expressed as Fc fusion | – | – | – | not influenced

Source: US8329179B2, “Death domain containing receptor 4 antibodies and methods” (Human Genome Sciences, Inc., priority 1997, dated 2012)
